Legend:
S6K1 = test: Immunoprecipitated S6K1 kinase activity (Crosstide) from treated ZR-75-1 cells; type: cell-based, human; details: 1 μM MK-2206, 1 h
Description: SGK3 (upper panel) and S6K1 (middle panel) were immunoprecipitated and subjected to in vitro kinase assay by measuring phosphorylation of the Crosstide substrate peptide in the presence of 0.1 mM [γ‐^32P]ATP in a 30 min 30°C reaction. Kinase reactions are presented as means ± SD for triplicate reaction. Immunoprecipitates (IP) were also analysed by immunoblot with the indicated antibodies. The cell lysates were also analysed by immunoblot using the indicated antibodies (lower panel).
Briefly, SGK3, Akt and S6K1 were immunoprecipitated from 1 mg ZR‐75‐1 cell lysate. Immunoprecipitates were washed in sequence with lysis buffer containing high salt concentration (500 mM NaCl), lysis buffer and Buffer A (50 mM Tris pH 7.5, 0.1 mM EGTA). Kinase activity was assessed by measuring [γ‐^32P]ATP incorporation into Crosstide substrate peptide [[…]]. The reactions were carried in 40 μl total volume containing 0.1 mM [γ‐^32P]ATP (400–1,000 cpm/pmol), 10 mM magnesium acetate and 30 μM Crosstide peptide. Reactions were terminated by adding 10 μl 0.1 M EDTA and spotting 40 μl of the resulting reaction mix on P81 paper, which were immediately immersed into 50 mM orthophosphoric acid. Papers were washed at least five times in 50 mM orthophosphoric acid, rinsed in acetone and air‐dried. Radioactivity was quantified by Cerenkov counting. […]

SGK3[S486E] = target: T1, SGK3[S486E] (Homo sapiens, UniProt Q96BR1, S486E); test: SGK3 kinase assay on phospholipid vesicles: phosphorylation of SGK3[S486E] at Thr320 by PDK1 with PtdIns(3)P; type: biochemical; details: in the presence of PtdIns(3)P
T1 construct: host or cells: HEK293
T1 sequence (Q96BR1 1-496 S486E): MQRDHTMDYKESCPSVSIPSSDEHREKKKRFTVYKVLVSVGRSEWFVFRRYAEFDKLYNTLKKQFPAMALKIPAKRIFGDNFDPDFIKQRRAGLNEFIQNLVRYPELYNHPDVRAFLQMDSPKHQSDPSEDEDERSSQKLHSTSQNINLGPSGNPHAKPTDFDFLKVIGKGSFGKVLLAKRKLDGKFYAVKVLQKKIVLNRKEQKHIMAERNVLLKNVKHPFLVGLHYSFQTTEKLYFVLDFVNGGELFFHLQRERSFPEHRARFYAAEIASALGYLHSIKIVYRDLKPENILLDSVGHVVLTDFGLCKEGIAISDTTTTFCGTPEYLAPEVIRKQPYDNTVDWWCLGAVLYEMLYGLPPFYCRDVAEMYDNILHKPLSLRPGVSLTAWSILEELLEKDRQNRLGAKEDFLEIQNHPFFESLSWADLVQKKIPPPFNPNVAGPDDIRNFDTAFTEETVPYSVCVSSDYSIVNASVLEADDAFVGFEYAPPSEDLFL
Description: Figure 4 PtdIns(3)P binding to PX domain of SGK3 promotes phosphorylation and activation by PDK1 • A, B SGK3 [S486E]‐GST and SGK3 [R90A S486]‐GST were purified from HEK293 cells transiently overexpressing these enzymes. […] SGK3[S486E]‐GST (A) or the non‐PtdIns(3)P‐binding mutant SGK3[R90A, S486E]‐GST (B) was incubated with lipid vesicles comprising phosphatidylcholine (PC) and phosphatidylserine (PS) containing the indicted concentrations of PtdIns or PtdIns(3)P in the presence or absence of added recombinant PDK1 (50 ng) and kinase reactions were initiated by addition of MgATP. After 30 min at 30°C, PDK1 was inhibited by addition of the 1 μM GSK2334470 PDK1 inhibitor and the reaction mixture was supplemented with 2 μg GST‐NDRG1 SGK3 substrate. After another 30 min at 30°C, the reaction was terminated by addition of SDS sample buffer. The reaction mixtures were subjected to immunoblot analysis with the indicated antibodies.
The result for each kinase is presented as a mean kinase activity of the reaction taken in triplicate relative to a control reaction where the inhibitors were omitted. […] SGK3 was immunoprecipitated from cell lysates and subjected to in vitro kinase assay by measuring phosphorylation of the Crosstide substrate peptide in the presence of 0.1 mM [γ‐^32P]ATP in a 30 min 30°C reaction (upper panel). Kinase reactions are presented as means ± SD for triplicate reaction. […]

| SMILES | reduction of S6K1 activity (S6K1) | concentration of near maximal inhibition of PDK1 phosphorylating SGK3[S486E] at Thr320 (SGK3[S486E]) [µM] |
| --- | --- | --- |
| NC1(c2ccc(-c3nc4ccn5c(=O)[nH]nc5c4cc3-c3ccccc3)cc2)CCC1 [MK-2206] | ~ 10 fold | – |
| Nc1n[nH]c2nc(-c3ccc(NS(=O)(=O)c4cc(Cl)ccc4Cl)cc3)cnc12 [14h] | – | 0.1 |

— PMC5007552, “The hVps34‐SGK3 pathway alleviates sustained PI3K/Akt inhibition by stimulating mTORC1 and tumour growth” (The EMBO Journal, 2016)
